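Test compounds were applied to cells in 96-well plates for 48 hours at 5 doses. Definition used: TGI = concentration required for complete inhibition of growth.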
Assays:
Experiment in all cases: NCI-60 cell line screen, 48 h
DU-145 prostate = test system: DU-145 prostate
SK-MEL-28 melanoma = test system: SK-MEL-28 melanoma
T-47D breast = test system: T-47D breast
OVCAR-8 ovarian = test system: OVCAR-8 ovarian
UACC-257 melanoma = test system: UACC-257 melanoma
IGROV1 ovarian = test system: IGROV1 ovarian
CCRF-CEM leukemia = test system: CCRF-CEM leukemia
NCI/ADR-RES ovarian = test system: NCI/ADR-RES ovarian
KM12 colon = test system: KM12 colon
786-0 renal = test system: 786-0 renal
PC-3 prostate = test system: PC-3 prostate
A549 NSCLC = test system: A549 NSCLC
SK-MEL-5 melanoma = test system: SK-MEL-5 melanoma
MDA-N = test system: MDA-N
UO-31 renal = test system: UO-31 renal
NCI-H226 lung = test system: NCI-H226 lung
SF-295 CNS = test system: SF-295 CNS
MALME-3M melanoma = test system: MALME-3M melanoma
OVCAR-4 ovarian = test system: OVCAR-4 ovarian
CAKI-1 renal = test system: CAKI-1 renal
LOX IMVI melanoma = test system: LOX IMVI melanoma
SNB-19 CNS = test system: SNB-19 CNS
EKVX NSCLC = test system: EKVX NSCLC
MOLT-4 leukemia = test system: MOLT-4 leukemia
COLO 205 colon = test system: COLO 205 colon
SK-OV-3 ovarian = test system: SK-OV-3 ovarian
HT29 colon = test system: HT29 colon
U251 CNS = test system: U251 CNS
NCI-H460 lung = test system: NCI-H460 lung
UACC-62 melanoma = test system: UACC-62 melanoma
ACHN renal = test system: ACHN renal
M14 melanoma = test system: M14 melanoma
SF-268 CNS = test system: SF-268 CNS
TK-10 renal = test system: TK-10 renal
SK-MEL-2 melanoma = test system: SK-MEL-2 melanoma
SW-620 colon = test system: SW-620 colon
SN12C renal = test system: SN12C renal
HCC-2998 colon = test system: HCC-2998 colon
K-562 leukemia = test system: K-562 leukemia
HCT-116 colon = test system: HCT-116 colon
MDA-MB-231 breast = test system: MDA-MB-231 breast
HL-60(TB) leukemia = test system: HL-60(TB) leukemia
RPMI-8226 leukemia = test system: RPMI-8226 leukemia
SNB-75 CNS = test system: SNB-75 CNS
MDA-MB-435 = test system: MDA-MB-435
OVCAR-5 ovarian = test system: OVCAR-5 ovarian
A498 renal = test system: A498 renal
NCI-H23 lung = test system: NCI-H23 lung
HS 578T breast = test system: HS 578T breast
SF-539 CNS = test system: SF-539 CNS
HOP-62 NSCLC = test system: HOP-62 NSCLC
HCT-15 colon = test system: HCT-15 colon
MCF7 breast = test system: MCF7 breast
SR leukemia = test system: SR leukemia
RXF 393 renal = test system: RXF 393 renal
OVCAR-3 ovarian = test system: OVCAR-3 ovarian
HOP-92 NSCLC = test system: HOP-92 NSCLC
NCI-H522 lung = test system: NCI-H522 lung
BT-549 breast = test system: BT-549 breast

Measured: TGI

O=C(CC(C(=O)c1cccs1)c1cccs1)c1ccccc1Cl (centres undefined)
> 100 µM: DU-145 prostate | SK-MEL-28 melanoma | T-47D breast | OVCAR-8 ovarian | UACC-257 melanoma | IGROV1 ovarian | CCRF-CEM leukemia | NCI/ADR-RES ovarian | KM12 colon | 786-0 renal | PC-3 prostate | A549 NSCLC | SK-MEL-5 melanoma | MDA-N | UO-31 renal | NCI-H226 lung | SF-295 CNS | MALME-3M melanoma | OVCAR-4 ovarian | CAKI-1 renal | LOX IMVI melanoma | SNB-19 CNS | EKVX NSCLC | MOLT-4 leukemia | COLO 205 colon | SK-OV-3 ovarian | HT29 colon | U251 CNS | NCI-H460 lung | UACC-62 melanoma | ACHN renal | M14 melanoma | SF-268 CNS | TK-10 renal | SK-MEL-2 melanoma | SW-620 colon | SN12C renal | HCC-2998 colon | K-562 leukemia | HCT-116 colon | MDA-MB-231 breast | HL-60(TB) leukemia | RPMI-8226 leukemia | SNB-75 CNS | MDA-MB-435 | OVCAR-5 ovarian | A498 renal | NCI-H23 lung | HS 578T breast | SF-539 CNS | HOP-62 NSCLC | HCT-15 colon | MCF7 breast | SR leukemia

COC1(OC)N=C(N)C2(C#N)C3(C(=O)N(C(C)C)N=C3C)C12C#N (centres undefined)
> 100 µM: DU-145 prostate | SK-MEL-28 melanoma | T-47D breast | OVCAR-8 ovarian | UACC-257 melanoma | IGROV1 ovarian | CCRF-CEM leukemia | NCI/ADR-RES ovarian | RXF 393 renal | KM12 colon | 786-0 renal | PC-3 prostate | A549 NSCLC | MDA-N | OVCAR-3 ovarian | UO-31 renal | NCI-H226 lung | SF-295 CNS | MALME-3M melanoma | OVCAR-4 ovarian | CAKI-1 renal | SNB-19 CNS | EKVX NSCLC | MOLT-4 leukemia | COLO 205 colon | SK-OV-3 ovarian | HT29 colon | U251 CNS | NCI-H460 lung | UACC-62 melanoma | ACHN renal | M14 melanoma | SF-268 CNS | SK-MEL-2 melanoma | SW-620 colon | SN12C renal | HCC-2998 colon | K-562 leukemia | HCT-116 colon | MDA-MB-231 breast | HL-60(TB) leukemia | RPMI-8226 leukemia | SNB-75 CNS | HOP-92 NSCLC | MDA-MB-435 | OVCAR-5 ovarian | A498 renal | NCI-H23 lung | SF-539 CNS | HOP-62 NSCLC | HCT-15 colon | NCI-H522 lung | MCF7 breast | SR leukemia | BT-549 breast
